We go through ten molecules from PubChem BioAssay (NCI).

“And” between values parts separate entries of the source, which are not always exact repeats. Identical values can stand only once.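 Five concentrations, 48 hours, 96-well plates. Abbreviation: GI50, concentration required for 50% inhibition of growth. TGI denotes the concentration required for complete inhibition of growth.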 Bounds are passed on as bounds.

The term TGI denotes the concentration giving total growth inhibition. Low values mean greater sensitivity of the cells, high ones lower sensitivity of the cells. A word on the GI50: it is the concentration giving 50% growth inhibition.

Among the test systems are RPMI-8226 leukemia; CCRF-CEM leukemia; SF-268 CNS; SK-MEL-28 melanoma; RXF 393 renal; NCI-H460 lung; EKVX NSCLC; K-562 leukemia; OVCAR-8 ovarian; CAKI-1 renal.
Assay in all cases: DTP human tumour cell line panel, 48 h

As for `CCc1c(Cl)c(C)cc(O)c1Cl`, the TGI in the assay on RPMI-8226 leukemia is 57.5 µM; in the assay on CCRF-CEM leukemia, 91.7 µM; in the assay with SF-268 CNS, more than 100 µM; in the assay with SK-MEL-28 melanoma, more than 100 µM; in the assay with RXF 393 renal it was more than 100 µM; with NCI-H460 lung it was more than 100 µM. The TGI in the assay on EKVX NSCLC, in the assay on K-562 leukemia, in the assay with OVCAR-8 ovarian and with CAKI-1 renal was more than 100 µM throughout.
For the molecule `CCOC(=O)/C=C/c1ccc(C#Cc2ccccc2)cc1`, the GI50 in the assay on RPMI-8226 leukemia was 54.5 µM; in the assay on CCRF-CEM leukemia, more than 100 µM; with SF-268 CNS, more than 100 µM; with SK-MEL-28 melanoma, more than 100 µM; in the assay with RXF 393 renal, 49.2 µM; in the assay on NCI-H460 lung, 66.1 µM. Also, the GI50 in the assay on EKVX NSCLC is 0.0608 µM; with K-562 leukemia it was 72 µM; in the assay on OVCAR-8 ovarian, more than 100 µM; in the assay with CAKI-1 renal, more than 100 µM. In addition, the total growth inhibition concentration (TGI) in the assay with RPMI-8226 leukemia, in the assay with CCRF-CEM leukemia, in the assay on SF-268 CNS, in the assay on SK-MEL-28 melanoma, in the assay with RXF 393 renal and with NCI-H460 lung was more than 100 µM in each case. The TGI in the assay with EKVX NSCLC is 43.1 µM; in the assay on K-562 leukemia, more than 100 µM; in the assay on OVCAR-8 ovarian, more than 100 µM; in the assay with CAKI-1 renal, more than 100 µM.
Regarding `CC(C)(C)[Si](C)(C)OC1C(=O)C[C@H]2CCCC[C@@H]12` (stereo partly drawn), the TGI with RPMI-8226 leukemia, in the assay on CCRF-CEM leukemia, in the assay on SF-268 CNS, with RXF 393 renal, in the assay with NCI-H460 lung and with EKVX NSCLC was more than 100 µM each time. Besides, the TGI in the assay with K-562 leukemia, in the assay on OVCAR-8 ovarian and with CAKI-1 renal was more than 100 µM in each case.
For the molecule `O=C(CNS(=O)(=O)Cc1ccccc1)NNc1ccccc1`, the TGI in the assay on RPMI-8226 leukemia, in the assay on CCRF-CEM leukemia, in the assay on SF-268 CNS, in the assay on SK-MEL-28 melanoma, with RXF 393 renal and in the assay with NCI-H460 lung was more than 100 µM in each case. The TGI in the assay on EKVX NSCLC, with K-562 leukemia, in the assay on OVCAR-8 ovarian and with CAKI-1 renal was more than 100 µM throughout.
Turning to `CCOC(=O)c1c(-c2ccc(OC)cc2)c(C#N)c2c(C#N)c(N)nn2c1N`, the GI50 in the assay on RPMI-8226 leukemia is 2.31 µM; with CCRF-CEM leukemia, 2.46 µM; in the assay on SF-268 CNS, 5.39 µM; with SK-MEL-28 melanoma it was 5.41 µM; in the assay on RXF 393 renal, 2.25 µM; with NCI-H460 lung, 3.67 µM. For the same molecule, the GI50 in the assay on EKVX NSCLC is 4.8 µM; in the assay with K-562 leukemia, 1.18 µM; in the assay with OVCAR-8 ovarian, 4.27 µM; in the assay with CAKI-1 renal, 2.95 µM. For the same molecule, the TGI with RPMI-8226 leukemia was more than 100 µM; in the assay on CCRF-CEM leukemia it was more than 100 µM; in the assay with SF-268 CNS, 73.7 µM; with SK-MEL-28 melanoma, more than 100 µM; with RXF 393 renal it was 11.5 µM; in the assay with NCI-H460 lung, 30.9 µM. Moreover, the TGI with EKVX NSCLC, in the assay with K-562 leukemia, with OVCAR-8 ovarian and with CAKI-1 renal was more than 100 µM each time.
In the case of `Cn1c2ccccc2c2ncc3[nH]c4ccccc4c3c21`, the TGI in the assay on RPMI-8226 leukemia is 63 µM; with CCRF-CEM leukemia it was more than 100 µM; in the assay with SF-268 CNS it was 61.8 µM; with SK-MEL-28 melanoma it was 31.7 µM; in the assay on RXF 393 renal, 30.6 µM; with NCI-H460 lung, 32.2 µM. Besides, the TGI in the assay on EKVX NSCLC was 65.6 µM; in the assay on K-562 leukemia, 95.5 µM; with OVCAR-8 ovarian, 52.7 µM; in the assay with CAKI-1 renal it was 68.8 µM.
In the case of `CSc1nc(NC2OC(COC(C)=O)C(OC(C)=O)C(OC(C)=O)C2OC(C)=O)c(N=CC=Nc2c(NC3OC(COC(C)=O)C(OC(C)=O)C(OC(C)=O)C3OC(C)=O)nc(SC)n(C)c2=O)c(=O)n1C` (stereo not drawn), the TGI with RPMI-8226 leukemia was more than 100 µM; with CCRF-CEM leukemia, more than 100 µM; in the assay on SF-268 CNS it was more than 100 µM; in the assay on SK-MEL-28 melanoma, more than 100 µM; with RXF 393 renal it was 46.2 µM and 61.5 µM; in the assay with NCI-H460 lung, more than 100 µM. The TGI with EKVX NSCLC, with K-562 leukemia, in the assay on OVCAR-8 ovarian and in the assay on CAKI-1 renal was more than 100 µM each time. Further, the GI50 in the assay with CCRF-CEM leukemia is more than 50 µM; in the assay on SF-268 CNS it was more than 50 µM; in the assay on SK-MEL-28 melanoma, more than 50 µM; in the assay with RXF 393 renal, 12.4 µM; in the assay on NCI-H460 lung, more than 50 µM; in the assay on EKVX NSCLC it was more than 50 µM. Moreover, the GI50 with K-562 leukemia, in the assay on OVCAR-8 ovarian and in the assay on CAKI-1 renal was more than 50 µM throughout.
In the case of `C[C@]12CCC(=O)C=C1CC[C@@H]1C2CC[C@]2(C)Nc3[nH]ncc3CC12` (stereo partly drawn), the TGI with RPMI-8226 leukemia, in the assay on CCRF-CEM leukemia, with SK-MEL-28 melanoma, with RXF 393 renal, in the assay with NCI-H460 lung and in the assay with EKVX NSCLC was more than 100 µM throughout. The TGI with K-562 leukemia, in the assay on OVCAR-8 ovarian and in the assay with CAKI-1 renal was more than 100 µM each time.
On to `Nc1ccn(C2OC(CO)C(O)C2O)c(=O)n1` (stereo not drawn), for which the GI50 in the assay on RPMI-8226 leukemia is 3.75 µM; with CCRF-CEM leukemia, < 0.0107 µM and 0.00608 µM and 0.0148 µM; with SF-268 CNS, 1.01 µM; in the assay on RXF 393 renal, 13.6 µM; with NCI-H460 lung, 0.114 µM and 0.231 µM and 0.12 µM; with K-562 leukemia, 0.477 µM and 0.464 µM and 4.64 µM. Moreover, the GI50 in the assay with OVCAR-8 ovarian was 0.392 µM; in the assay with CAKI-1 renal, 0.107 µM. Further, the TGI with RPMI-8226 leukemia was more than 500 µM; in the assay on SF-268 CNS, more than 500 µM; in the assay with SK-MEL-28 melanoma, more than 500 µM; with RXF 393 renal, more than 500 µM; with NCI-H460 lung it was > 100 µM and 418 µM; in the assay with EKVX NSCLC, more than 500 µM. In addition, the TGI with K-562 leukemia and in the assay on OVCAR-8 ovarian was more than 500 µM throughout.
For the molecule `O=[P@@]1(c2ccccc2)O[C@H](COCc2ccccc2)[C@@H](OCc2ccccc2)[C@H](OCc2ccccc2)[C@H]1NCc1ccccc1`, the GI50 was 2.97 µM in the assay with RPMI-8226 leukemia; 3.23 µM with CCRF-CEM leukemia; 3.47 µM with SF-268 CNS; 4.48 µM with SK-MEL-28 melanoma; 3.83 µM in the assay on RXF 393 renal; 2.59 µM in the assay with NCI-H460 lung. The GI50 in the assay with EKVX NSCLC was 2.71 µM; with K-562 leukemia it was 2.86 µM; with OVCAR-8 ovarian, 3.24 µM; with CAKI-1 renal, 2.15 µM. Further, the TGI with RPMI-8226 leukemia was more than 100 µM; with CCRF-CEM leukemia it was more than 100 µM; with SF-268 CNS, more than 100 µM; in the assay with SK-MEL-28 melanoma, more than 100 µM; with RXF 393 renal, more than 100 µM; in the assay on NCI-H460 lung, 7.11 µM. The TGI was more than 100 µM with EKVX NSCLC, more than 100 µM in the assay on K-562 leukemia, more than 100 µM with OVCAR-8 ovarian and 8.66 µM with CAKI-1 renal.
